{"source": "paper PMC8201324", "about": "“Pyrazoles and Pyrazolines as Anti-Inflammatory Agents” (Molecules, 2021)", "key": {"[1]": {"test_system": "acetic acid-induced writhing", "assay": "Anti-nociception writhing test (acetic acid)", "assay_type": "in vivo, Fisher 344 rats", "conditions": "0.0057 mmol/kg body weight i.p., 0.6% acetic acid after 30 min", "source_text": "The acetic acid-induced writhing test is a quick, simple and reproducible method, despite the fact that it lacks specialization. […] The animals (Fisher 344 rats), were housed under standard conditions, and received a diet of commercial food pellets and water ad libitum during the maintenance, but were entirely fasted during the experiment period. Both sexes were used, while pregnant females were excluded. Each group was composed of 6–15 animals. Our studies were in accordance with recognized guidelines on animal experimentation (guidelines for the care and use of laboratory animals published by the Greek Government 160/1991, based on EU regulations 86/609). Rats were kept in the Centre of the School of Veterinary Medicine (EL54 BIO42), Aristotle University of Thessaloniki, which is registered by the official state veterinary authorities (presidential degree 56/2013, in harmony with the European Directive 2010/63/EEC). The experimental protocols were approved by the Animal Ethics Committee of the Prefecture of Central Macedonia. For the study of the analgesic activity of the tested compounds, pain is provoked with acetic acid. Animals were divided in three five-membered groups, according to our reported method. After treatment with the tested compounds (0.0057 mmol/kg body weight; intraperitoneally) in the first group, the second group was used as a positive control (aspirin; 0.0057 mmol/kg body weight i.p.) and the third group served as the control in which saline was administered (negative control). After 30 min, 0.6% acetic acid (1 mL/kg body weight) was injected i.p. The number of writhes was recorded for each animal every 5 min during a subsequent 30 min period (Table 6)."}, "[2]": {"test_system": "adjuvant-induced disease (AID)", "assay": "Adjuvant-induced disease (AID)", "assay_type": "in vivo, Fisher 344 rats", "conditions": "AID rats", "procedure": "Adjuvant-induced disease (AID) is a good experimental model for rheumatoid arthritis, and is often used in testing agents for anti-inflammatory activity. The compound was administered intraperitoneally on the 1st day, i.e., the day of the administration of Freund’s adjuvant (FA), and once every other day for the following 24 days. Adjuvant arthritis was developed about 14 days post-FA administration. […] The effect of the tested compound on inflammation is shown in Table 7 and the time course of adjuvant arthritis development expressed as arthritic score is shown in Figure 2. In the same experimental model, Indomethacin (IMA) was used as a reference compound.\n(§1) The animals (Fisher 344 rats), were housed under standard conditions, and received a diet of commercial food pellets and water ad libitum during the maintenance, but were entirely fasted during the experiment period. Both sexes were used, while pregnant females were excluded. Each group was composed of 6–15 animals. Our studies were in accordance with recognized guidelines on animal experimentation (guidelines for the care and use of laboratory animals published by the Greek Government 160/1991, based on EU regulations 86/609). Rats were kept in the Centre of the School of Veterinary Medicine (EL54 BIO42), Aristotle University of Thessaloniki, which is registered by the official state veterinary authorities (presidential degree 56/2013, in harmony with the European Directive 2010/63/EEC). The experimental protocols were approved by the Animal Ethics Committee of the Prefecture of Central Macedonia.\nRats were divided into four groups (five-membered groups of animals were used): groups one, two and three were injected intradermally with 0.1 mL Freund’s adjuvant (FA) into the base of the tails of the animals; group three was the FA control rats; group four was injected with saline, used as an absolute control. Compound 2d (group 1) and indomethacin (group 2) were injected i.p. once every other day for the following 24 days in a dose of 0.00057 mmol/mL/kg body weight (Table 7). Adjuvant arthritis was developed circa 14 days post-FA administration. Arthritic score was measured every 2 days from the commencement (14th day) day. Arthritic score was assessed on the 24th day. For quantification of arthritis (arthritic score); a single point was assigned for each wrist or ankle area and an additional point was given for each involved phalangeal joint, up to a maximum of five points per extremity.\nOn the 24th day and at least 12 h after the last injection, animals were administered zoxazolamine i.p. […], as an aqueous suspension with a few drops of Tween 80, and the duration of the paralysis were assessed (Table 7) (Figure 2). The experiment was conducted in duplicate."}, "[3]": {"test_system": "carrageenin-induced rat paw edema", "assay": "Inhibition of the carrageenin-induced rat paw edema", "assay_type": "in vivo, Fisher 344 rats", "conditions": "0.0057 mmol/Kg body weight, intraperitoneally, 3.5 h after carrageenin", "source_text": "The carrageenin-induced rat paw edema assay was used, as a model of acute inflammation. Inflammation induced by carrageenan is acute, non-immune, well-researched, and highly reproducible, and is described as a biphasic event. Cardinal signs of inflammation—edema, hyperalgesia, and erythema, are developed immediately following subcutaneous injection, resulting from the action of pro-inflammatory agents: bradykinin, histamine, tachykinins, complement reactive oxygen and nitrogen species. It is known that NSAIDs act during the second phase of prostaglandin release, presenting weak activity in the first phase of histamine and serotonin release.\nas §1\nCarrageenin in water as an intradermal injection of 0.1 mL 2% was used for the induction of the edema in the right hind paw of the rats, according to the previously reported method. Animals were divided in five-membered groups and the tested compounds were suspended in water (0.0057 mmol/kg body weight), with a few drops of Tween 80, ground in a mortar before administered intraperitoneally simultaneously. The rats were euthanized 3.5 h after carrageenin injection. Comparison of the change in paw weight with that in control animals (treated with water) was expressed as a percent inhibition of the oedema CPE% values using indomethacin (IMA) as a reference compound. Values CPE% are the mean from two different experiments with a standard error of the mean less than 10% (Table 5). Student’s T test was applied."}, "[4]": {"assay": "Reducing activity of the stable radical DPPH", "assay_type": "biochemical", "procedure": "The novel derivatives were studied for their interaction with the stable 2,2-diphenyl-1-picrylhydrazyl free radical (DPPH) at concentrations 50 µM, 100 µM, 200 µM and after 20 and 60 min (Table 3). This assay is based on the reduction of the DPPH by transferring an electron from the antioxidant. […] However, it seems that the interaction is dependent on the concentration and on the reaction time. From this point of view, it can be concluded that the acetyl pyrazolyl derivatives 2c and 2f seem to present the highest scavenging activities. An increase in concentration favors the activity. […] As for compounds 2a, 2b, 2c and 2f, activity seems to be time dependent at 200 µM. […] The presence of a chlorine group in 2e pyrazoline leads to an activity increase (compared to 2d) in concentration 200 µM. The acetyl derivative 2f presents better activity than 2b at 200 µM.\n(§2) A stock solution (1% DMSO in the appropriate buffer with the tested compound diluted under sonication) was prepared for the in vitro assays from which several dilutions were made with the appropriate buffer. The in vitro experiments were performed at least in triplicate, and the standard deviation of absorbance was less than 10% of the mean.\nA stock solution (10 mM) of the novel derivatives in DMSO was prepared and an equal volume of it was added to a solution of DPPH in absolute ethanol to reach final concentrations 50, 100 µM and 200 µM. The absorbance was recorded at 517 nm, after 20 and 60 min at room temperature (Table 3)."}, "[5]": {"assay": "ABTS+ decolorization assay for antioxidant activity", "assay_type": "biochemical", "source_text": "Pyrazolines 2d and 2e which are the most lipophilic compounds, showing antioxidant activity using the ABTS radical cation (ABTS^•+) generated through potassium persulfate by oxidation with no participation of an intermediary radical. This reduction is completed by adding electron-donating antioxidants. It seems that lipophilicity influences the activity, since both present high lipophilicity values.\nas §2\nThe ABTS radical cation (ABTS^+•) was generated by mixing ABTS stock solution in water (7 mM) with potassium persulfate (2.45 mM) and left in the dark at room temperature for 12–16 h before use. The results are recorded immediately after the mixing solutions at 734 nm. The results were compared to the appropriate standard inhibitor Trolox (Table 4)."}, "[6]": {"assay": "Inhibition of linoleic acid lipid peroxidation (AAPH)", "assay_type": "biochemical", "procedure": "For the lipid peroxidation study, 2,2′-azobis(2-amidinopropane) hydrochloride (AAPH) was used for the generation of peroxyl radicals. The generation of the conjugated diene hydroperoxide derived from the oxidation of sodium linoleate in an aqueous solution was recorded at 234 nm. The compounds presented high anti-lipid peroxidation activity (78–100%) (Table 4). Pyrazolines 2a and 2b present lower anti-lipid peroxidation activity (89% and 78% respectively).\nas §2\nAAPH was used as free radical initiator of alkylperoxyl radicals. The ability of the compounds to prevent the oxidation of linoleic acid sodium salt from alkylperoxyl radicals was recorded at 234 nm. Trolox was used as reference ([…]%) (Table 4)."}, "[7]": {"conditions": "0.00057 mmol/mL/kg i.p. every other day for 24 days"}}, "note": "Marks after values point to notes of the source that are not given here.", "data": [{"compound": "CC(=O)Oc1ccccc1C(=O)O", "note": "[Aspirin, acetylsalicylic acid, reference compound]", "values": [{"measurement": "Writhing Inhibition (%)", "setting": "[1]", "value": "77 ** %"}]}, {"compound": "COc1ccc2c(c1)c(CC(=O)O)c(C)n2C(=O)c1ccc(Cl)cc1", "note": "[Indomethacin, reference compound]", "values": [{"measurement": "Percent change in body weight (g ± SD)", "setting": "[2]; [7]", "value": "8.3 ± 0.2", "unit": "g"}, {"measurement": "Percent change in liver weight (g ± SD)", "setting": "[2]; [7]", "value": "6.3 ± 0.4", "unit": "g"}, {"measurement": "Zoxazolamine paralysis (minutes ± SD)", "setting": "[2]; 24th day, zoxazolamine i.p.", "value": "217 ± 17", "unit": "min"}, {"measurement": "CPE % (reduction in the rat paw edema induced by carrageenin)", "setting": "[3]", "value": "47 ** %"}]}, {"compound": "CC(Cc1ccc(O)c(O)c1)C(C)Cc1ccc(O)c(O)c1", "note": "(stereo not drawn) [NDGA, Nordihydroguaretic acid, reference compound]", "values": [{"measurement": "RA% 50 µM 20 min", "setting": "[4]; 50 µM, 20 min", "value": 81, "unit": "%"}, {"measurement": "RA% 50 µM 60 min", "setting": "[4]; 50 µM, 60 min", "value": 83, "unit": "%"}, {"measurement": "RA% 100 µM 20 min", "setting": "[4]; 100 µM, 20 min", "value": 87, "unit": "%"}, {"measurement": "RA% 200 µM 20 min", "setting": "[4]; 200 µM, 20 min", "value": 94, "unit": "%"}, {"measurement": "RA% 200 µM 60 min", "setting": "[4]; 200 µM, 60 min", "value": 96, "unit": "%"}]}, {"compound": "Cc1c(C)c2c(c(C)c1O)CCC(C)(C(=O)O)O2", "note": "(stereo not drawn) [Trolox, 6-Hydroxy-2,5,7,8-tetramethyl-chroman-2-carboxylic acid, reference compound]", "values": [{"measurement": "ABTS^+ % 100 µM (decolorization activity)", "setting": "[5]", "value": 91, "unit": "%"}, {"measurement": "AAPH% 100 µM (anti-lipid peroxidation)", "setting": "[6]", "value": 93, "unit": "%"}]}]}
